The supplement of paper PMC10307832

Key:
Test in all cases: relative viability (nuclei count vs DMSO), 5 days (fraction); higher = more cells survive
[1] = test system: NCI-H1734
In short: (§1)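 Nuclei were stained with Hoechst during a one-step fixation (final 0.05% Triton X-100, 1% formaldehyde, 1 ug/ml Hoechst) carried out 5 days after dosing, then counted on 4× images. The cells, lung cancer lines in 1536-well plates, had been dosed by pin tool the day after seeding with one drug alone or a fixed anchor-drug dose plus five library-drug doses (not always all listed) in √10 steps. Relative viability is the nuclei count in treated wells divided by that in vehicle wells, and each value is the median of duplicate plates.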

[2] = test system: LC-2-ad
In short: as §1

[3] = test system: BEN
In short: as §1

[4] = test system: NCI-H2170
In short: as §1

[5] = test system: NCI-H1437
In short: as §1

[6] = test system: HCC-366
In short: as §1

[7] = test system: NCI-H596
In short: as §1

[8] = test system: NCI-H647
In short: as §1

[9] = test system: HCC-44
In short: as §1

[10] = test system: NCI-H1792
In short: as §1

[11] = test system: HARA
In short: as §1

[12] = test system: NCI-H1395
In short: as §1

[13] = test system: HCC-827
In short: as §1

[14] = test system: NCI-H661
In short: as §1

[15] = test system: NCI-H2009
In short: as §1

[16] = test system: NCI-H2342
In short: as §1

[17] = test system: LOU-NH91
In short: as §1

[18] = test system: NCI-H2087
In short: as §1

[19] = test system: NCI-H2405
In short: as §1

[20] = test system: SK-MES-1
In short: as §1

[21] = test system: NCI-H1355
In short: as §1

[22] = test system: SK-LU-1
In short: as §1

[23] = test system: EKVX
In short: as §1

[24] = test system: NCI-H2228
In short: as §1

Clc1ccc(Nc2nnc(Cc3ccncc3)c3ccccc23)cc1 [Vatalanib] + COc1cccc2cc(-c3nc([C@H]4CC[C@H](C(=O)O)CC4)n4ncnc(N)c34)[nH]c12 [OSI-027] (partner 0.5 µM)
relative viability ([1]; first compound 0.04 µM): 0.675 | relative viability ([1]; first compound 0.1265 µM): 0.463 | relative viability ([1]; first compound 0.4 µM): 0.697 | relative viability ([1]; first compound 1.265 µM): 0.563 | relative viability ([1]; first compound 4 µM): 0.589 | relative viability ([2]; first compound 0.04 µM): 0.935 | relative viability ([2]; first compound 0.1265 µM): 0.865 | relative viability ([2]; first compound 1.265 µM): 0.785 | relative viability ([2]; first compound 4 µM): 0.826 | relative viability ([3]; first compound 0.04 µM): 0.297 | relative viability ([3]; first compound 0.1265 µM): 0.314 | relative viability ([3]; first compound 0.4 µM): 0.31 | relative viability ([3]; first compound 1.265 µM): 0.295 | relative viability ([3]; first compound 4 µM): 0.281 | relative viability ([4]; first compound 0.04 µM): 0.707 | relative viability ([4]; first compound 0.1265 µM): 0.743 | relative viability ([4]; first compound 0.4 µM): 0.782 | relative viability ([4]; first compound 1.265 µM): 0.63 | relative viability ([4]; first compound 4 µM): 0.769 | relative viability ([5]; first compound 0.04 µM): 0.942 | relative viability ([5]; first compound 0.1265 µM): 0.949 | relative viability ([5]; first compound 0.4 µM): 0.937 | relative viability ([5]; first compound 1.265 µM): 0.792 | relative viability ([5]; first compound 4 µM): 0.879 | relative viability ([6]; first compound 0.04 µM): 1.18 | relative viability ([6]; first compound 0.1265 µM): 0.846 | relative viability ([6]; first compound 0.4 µM): 1.13 | relative viability ([6]; first compound 1.265 µM): 0.736 | relative viability ([6]; first compound 4 µM): 0.548 | relative viability ([7]; first compound 0.04 µM): 0.838 | relative viability ([7]; first compound 0.1265 µM): 0.651 | relative viability ([7]; first compound 0.4 µM): 0.777 | relative viability ([7]; first compound 1.265 µM): 0.756 | relative viability ([7]; first compound 4 µM): 0.5 | relative viability ([8]; first compound 0.04 µM): 0.654 | relative viability ([8]; first compound 0.1265 µM): 0.597 | relative viability ([8]; first compound 0.4 µM): 0.634 | relative viability ([8]; first compound 1.265 µM): 0.568 | relative viability ([8]; first compound 4 µM): 0.671 | relative viability ([9]; first compound 0.04 µM): 0.524 | relative viability ([9]; first compound 0.1265 µM): 0.652 | relative viability ([9]; first compound 0.4 µM): 0.438 | relative viability ([9]; first compound 1.265 µM): 0.439 | relative viability ([9]; first compound 4 µM): 0.355 | relative viability ([10]; first compound 0.04 µM): 0.678 | relative viability ([10]; first compound 0.1265 µM): 0.68 | relative viability ([10]; first compound 0.4 µM): 0.704 | relative viability ([10]; first compound 1.265 µM): 0.707 | relative viability ([10]; first compound 4 µM): 0.631 | relative viability ([11]; first compound 0.04 µM): 0.506 | relative viability ([11]; first compound 0.1265 µM): 0.595 | relative viability ([11]; first compound 0.4 µM): 0.71 | relative viability ([11]; first compound 1.265 µM): 0.492 | relative viability ([11]; first compound 4 µM): 0.422 | relative viability ([12]; first compound 0.04 µM): 0.632 | relative viability ([12]; first compound 0.1265 µM): 0.634 | relative viability ([12]; first compound 0.4 µM): 0.597 | relative viability ([12]; first compound 1.265 µM): 0.651 | relative viability ([12]; first compound 4 µM): 0.604 | relative viability ([13]; first compound 0.04 µM): 0.818 | relative viability ([13]; first compound 0.1265 µM): 0.729 | relative viability ([13]; first compound 0.4 µM): 0.739 | relative viability ([13]; first compound 1.265 µM): 0.744 | relative viability ([13]; first compound 4 µM): 0.705 | relative viability ([14]; first compound 0.04 µM): 0.737 | relative viability ([14]; first compound 0.1265 µM): 0.699 | relative viability ([14]; first compound 0.4 µM): 0.709 | relative viability ([14]; first compound 1.265 µM): 0.717 | relative viability ([14]; first compound 4 µM): 0.67 | relative viability ([15]; first compound 0.04 µM): 0.73 | relative viability ([15]; first compound 0.1265 µM): 0.561 | relative viability ([15]; first compound 0.4 µM): 0.647 | relative viability ([15]; first compound 1.265 µM): 0.58 | relative viability ([15]; first compound 4 µM): 0.626 | relative viability ([16]; first compound 0.04 µM): 0.691 | relative viability ([16]; first compound 0.1265 µM): 0.556 | relative viability ([16]; first compound 0.4 µM): 0.616 | relative viability ([16]; first compound 1.265 µM): 0.592 | relative viability ([16]; first compound 4 µM): 0.601 | relative viability ([17]; first compound 0.04 µM): 0.712 | relative viability ([17]; first compound 0.1265 µM): 0.738 | relative viability ([17]; first compound 1.265 µM): 0.728 | relative viability ([17]; first compound 4 µM): 0.625 | relative viability ([18]; first compound 0.04 µM): 0.673 | relative viability ([18]; first compound 0.1265 µM): 0.468 | relative viability ([18]; first compound 0.4 µM): 0.647 | relative viability ([18]; first compound 1.265 µM): 0.548 | relative viability ([18]; first compound 4 µM): 0.564 | relative viability ([19]; first compound 0.04 µM): 0.665 | relative viability ([19]; first compound 0.1265 µM): 0.631 | relative viability ([19]; first compound 1.265 µM): 0.666 | relative viability ([19]; first compound 4 µM): 0.608 | relative viability ([20]; first compound 0.04 µM): 0.634 | relative viability ([20]; first compound 0.1265 µM): 0.588 | relative viability ([20]; first compound 0.4 µM): 0.77 | relative viability ([20]; first compound 1.265 µM): 0.578 | relative viability ([20]; first compound 4 µM): 0.575 | relative viability ([21]; first compound 0.04 µM): 0.427 | relative viability ([21]; first compound 0.1265 µM): 0.431 | relative viability ([21]; first compound 0.4 µM): 0.435 | relative viability ([21]; first compound 1.265 µM): 0.413 | relative viability ([21]; first compound 4 µM): 0.34 | relative viability ([22]; first compound 0.04 µM): 0.365 | relative viability ([22]; first compound 0.1265 µM): 0.346 | relative viability ([22]; first compound 0.4 µM): 0.395 | relative viability ([22]; first compound 1.265 µM): 0.357 | relative viability ([22]; first compound 4 µM): 0.348 | relative viability ([23]; first compound 0.04 µM): 0.743 | relative viability ([23]; first compound 0.1265 µM): 0.663 | relative viability ([23]; first compound 0.4 µM): 0.663 | relative viability ([23]; first compound 4 µM): 0.643 | relative viability ([24]; first compound 0.04 µM): 0.568 | relative viability ([24]; first compound 0.1265 µM): 0.566 | relative viability ([24]; first compound 0.4 µM): 0.604 | relative viability ([24]; first compound 1.265 µM): 0.589 | relative viability ([24]; first compound 4 µM): 0.504
